# Where two headings read alike, the source gives them in different places.
# Experiments:
# [1] = system: hiPSC-CMs (iCell-Cardiomyocytes^2); assay: MEA impedance (cytotoxicity readout) in hiPSC-CMs; details: for effect on impedance: all concentrations tested, up to 96 h
# [2] = system: hiPSC-CMs (iCell-Cardiomyocytes^2); assay: ApoLive-Glo Multiplex Assay: viability (live cells); assay type: cell-based, human
# Experimental: (§1) iCell-Cardiomyocytes^2 (Fujifilm Cellular Dynamics Inc., Madison, WI, United States) were seeded into 96 well-plates (Greiner Bio One, ref. 655946) according to the manufacturer instructions, at a density of 50 k cells/well. […] To assess effects on viability and cytotoxicity, two assay combination kits were used: 1) RealTime-Glo™ Annexin V Apoptosis and Necrosis Assay [Promega, JA1011 ([Kupcho et al., 2019])] and 2) ApoLive-Glo Multiplex Assay [Promega, G6410 ([Flörkemeier et al., 2022])]. The assays were performed according to manufacturer instructions. The experiments were repeated at 24, 48, and 72 h in order to assess any time-dependent change in live cells or activation of cell-death pathways.
# (§2) The nonparametric Wilcoxon-Mann Whitney Test was used to compare the percent change from the baseline (Δ%) value between the group treated with the compound at a given concentration and the group treated with the DMSO at each matching time points. A two-sided test at 5% significance level was considered. […] To assess the physiological relevance of changes, a tolerance interval of DMSO experiments was calculated at each time point, for each parameter. Specifically, the Δ% values of all (pooled) DMSO wells (N = 81) were used to obtain the non-parametric 80%–95% (p = 0.80 & 1-α = 0.95) tolerance interval (TI). TIs indicate an interval where, with a certain confidence level (1- α = 0.95), a specified proportion (p = 0.80) of percent change for DMSO data falls. The lower and upper limits based on the TI values were used as cut-offs for the interpretation of the changes. For the cytotoxicity assays, measurements of fluorescence (after background fluorescence subtraction) from wells treated with the compounds were normalized by the average value of vehicle experiments (DMSO 0.1%) to obtain a DMSO-corrected, delta/delta percent change. Experiments from each condition, as delta/delta percent, were averaged and expressed as mean ± SD. Statistical analysis was performed using a non-parametric test (Kruskal-Wallis) and each treatment condition was compared to the relative DMSO 0.1%. Differences were considered statistically significant when the p-value was smaller than 0.05.
# [3] = system: caspases 3,7 in hiPSC-CMs; assay: ApoLive-Glo Multiplex Assay: apoptosis, caspases 3,7 activation; assay type: cell-based, human
# Experimental: as §1, §2
# [4] = system: Annexin V activation in hiPSC-CMs; assay type: cell-based
# Experimental: The assays were performed according to manufacturer instructions.
# as §2, with “Specifically, the Δ% values of all (pooled) DMSO wells (N = 81) were used to obtain the non-parametric 80%–95% (p = 0.80 & 1-α = 0.95) tolerance interval (TI).” left out
# [5] = system: hiPSC-CMs (iCell-Cardiomyocytes^2); assay: RealTime-Glo Annexin V Apoptosis and Necrosis Assay: necrosis; assay type: cell-based, human
# Experimental: as §1, §2
smiles,measurement,setting,value
CCN(CC)CCNC(=O)c1c(C)[nH]c(/C=C2\C(=O)Nc3ccc(F)cc32)c1C [Sunitinib],"Imp (impedance), % change from baseline","[1]; 0.03 µM, 2h",5±4%
same,"Imp (impedance), % change from baseline","[1]; 0.03 µM, 24h",-12±3%
same,"Imp (impedance), % change from baseline","[1]; 0.03 µM, 48h",-8±6%
same,"Imp (impedance), % change from baseline","[1]; 0.03 µM, 72h",-8±4%
same,"Imp (impedance), % change from baseline","[1]; 0.03 µM, 96h",-4±4%
same,"Imp (impedance), % change from baseline","[1]; 0.1 µM, 2h",6±3%
same,"Imp (impedance), % change from baseline","[1]; 0.1 µM, 24h",-10±4%
same,"Imp (impedance), % change from baseline","[1]; 0.1 µM, 48h",-7±4%
same,"Imp (impedance), % change from baseline","[1]; 0.1 µM, 72h",-5±3%
same,"Imp (impedance), % change from baseline","[1]; 0.1 µM, 96h",-2±3%
same,"Imp (impedance), % change from baseline","[1]; 0.3 µM, 2h",5±6%
same,"Imp (impedance), % change from baseline","[1]; 0.3 µM, 24h",-7±3%
same,"Imp (impedance), % change from baseline","[1]; 0.3 µM, 48h",-3±5%
same,"Imp (impedance), % change from baseline","[1]; 0.3 µM, 72h",-3±2%
same,"Imp (impedance), % change from baseline","[1]; 0.3 µM, 96h",-3±3%
same,"Imp (impedance), % change from baseline","[1]; 1 µM, 2h",12±7%
same,"Imp (impedance), % change from baseline","[1]; 1 µM, 24h",-9±6%
same,"Imp (impedance), % change from baseline","[1]; 1 µM, 48h",-7±7%
same,"Imp (impedance), % change from baseline","[1]; 1 µM, 72h",-8±7%
same,"Imp (impedance), % change from baseline","[1]; 1 µM, 96h",-5±6%
same,effect on impedance,[1],did not cause significant changes in the impedance signal
same,"Live Cells (viability), Mean±SD","[2]; 1 µM, 24h",-12.5±1.8 Δ/Δ%
same,"Live Cells (viability), Mean±SD","[2]; 1 µM, 48h",-8.8±2.9 Δ/Δ%
same,"Live Cells (viability), Mean±SD","[2]; 1 µM, 72h",5.8±5.9 Δ/Δ%
same,number of live cells,[2]; 3 µM,did not cause a relevant change
same,"Live Cells (viability), Mean±SD","[2]; 3 µM, 72h",-21.4±3.7 Δ/Δ%
same,"Live Cells (viability), Mean±SD","[2]; 3 µM, 24h",-1.8±19.3 Δ/Δ%
same,"Live Cells (viability), Mean±SD","[2]; 3 µM, 48h",-13.1±9.7 Δ/Δ%
same,number of live cells,"[2]; 10 µM, 24, 48, 72 h",significant decrease in the number of live cells
same,"concentration at which decrease in live-cell count occurred, times the median fCmax",[2]; 48 h time point,higher than 300
same,"Caspases 3, 7 (apoptosis activation), Mean±SD","[3]; 1 µM, 24h",11±8.3 Δ/Δ%
same,"Caspases 3, 7 (apoptosis activation), Mean±SD","[3]; 1 µM, 72h",70.2±31.9 Δ/Δ%
same,"Caspases 3, 7 (apoptosis activation), Mean±SD","[3]; 10 µM, 48h",42.9±61.5 Δ/Δ%
same,"Caspases 3, 7 (apoptosis activation), Mean±SD","[3]; 10 µM, 72h",-45±134.8 Δ/Δ%
same,"Annexin V (apoptosis activation), Mean±SD","[4]; 1 µM, 24h",-7.5±2.1 Δ/Δ%
same,"Annexin V (apoptosis activation), Mean±SD","[4]; 1 µM, 48h",-11.9±4.5 Δ/Δ%
same,"Annexin V (apoptosis activation), Mean±SD","[4]; 1 µM, 72h",-0.3±7 Δ/Δ%
same,"Annexin V (apoptosis activation), Mean±SD","[4]; 3 µM, 24h",7±8.3 Δ/Δ%
same,"Annexin V (apoptosis activation), Mean±SD","[4]; 10 µM, 48h",14.8±35.2 Δ/Δ%
same,"Annexin V (apoptosis activation), Mean±SD","[4]; 10 µM, 72h",-32.7±15.7 Δ/Δ%
same,"Necrosis, Mean±SD","[5]; 1 µM, 72h",88.5±23.2 Δ/Δ%
same,necrosis-driven cell death,[5]; especially at 10 µM,predominant necrosis-driven cell death
C[C@H](CS)C(=O)N1CCC[C@H]1C(=O)O [Captopril],"Imp (impedance), % change from baseline","[1]; 1 µM, 2h",7±5%
same,"Imp (impedance), % change from baseline","[1]; 1 µM, 24h",-7±1%
same,"Imp (impedance), % change from baseline","[1]; 1 µM, 48h",-9±4%
same,"Imp (impedance), % change from baseline","[1]; 1 µM, 72h",-2±3%
same,"Imp (impedance), % change from baseline","[1]; 1 µM, 96h",-4±5%
same,"Imp (impedance), % change from baseline","[1]; 3 µM, 72h",1±4%
same,"Imp (impedance), % change from baseline","[1]; 3 µM, 96h",-1±4%
same,"Imp (impedance), % change from baseline","[1]; 3 µM, 2h",9±3%
same,"Imp (impedance), % change from baseline","[1]; 3 µM, 24h",-6±3%
same,"Imp (impedance), % change from baseline","[1]; 3 µM, 48h",-7±4%
same,"Imp (impedance), % change from baseline","[1]; 10 µM, 2h",9±3%
same,"Imp (impedance), % change from baseline","[1]; 10 µM, 24h",-5±3%
same,"Imp (impedance), % change from baseline","[1]; 10 µM, 48h",-10±5%
same,"Imp (impedance), % change from baseline","[1]; 10 µM, 72h",-1±5%
same,"Imp (impedance), % change from baseline","[1]; 10 µM, 96h",-4±5%
same,"Imp (impedance), % change from baseline","[1]; 30 µM, 2h",8±2%
same,"Imp (impedance), % change from baseline","[1]; 30 µM, 24h",-4±3%
same,"Imp (impedance), % change from baseline","[1]; 30 µM, 48h",-8±2%
same,"Imp (impedance), % change from baseline","[1]; 30 µM, 72h",1±5%
same,"Imp (impedance), % change from baseline","[1]; 30 µM, 96h",-4±6%
same,effect on impedance,[1],did not have a significant effect on impedance
same,"Live Cells (viability), Mean±SD","[2]; 10 µM, 24h",-8.4±17.4 Δ/Δ%
same,"Live Cells (viability), Mean±SD","[2]; 10 µM, 48h",-9.1±9.5 Δ/Δ%
same,"Live Cells (viability), Mean±SD","[2]; 10 µM, 72h",2.4±8.5 Δ/Δ%
same,number of live cells,"[2]; any of the time points (24, 48, 72 h)",did not show any significant change in live cell number
same,"Caspases 3, 7 (apoptosis activation), Mean±SD","[3]; 10 µM, 24h",-6.9±11.1 Δ/Δ%
same,"Caspases 3, 7 (apoptosis activation), Mean±SD","[3]; 10 µM, 48h",-3±10.7 Δ/Δ%
same,"Caspases 3, 7 (apoptosis activation), Mean±SD","[3]; 10 µM, 72h",-3.6±5 Δ/Δ%
same,apoptosis activation,"[4]; 24, 48, 72 h",did not display any significant changes in necrosis or apoptosis activation
same,"Necrosis, Mean±SD","[5]; 10 µM, 24h",21.5±33.7 Δ/Δ%
same,"Necrosis, Mean±SD","[5]; 10 µM, 48h",-8.1±21.1 Δ/Δ%
same,"Necrosis, Mean±SD","[5]; 10 µM, 72h",13.9±44.2 Δ/Δ%
same,necrosis activation,"[5]; 24, 48, 72 h",did not display any significant changes in necrosis or apoptosis activation

# — paper PMC10364322, “Evaluation of chronic drug-induced electrophysiological and cytotoxic effects using human-induced pluripotent stem cell-derived cardiomyocytes (hiPSC-CMs)” (Frontiers in Pharmacology, 2023)
